Experimental data reported in US20110274697A1, “NOVEL USES” (priority 2009, published 2011).

Legend:
[1] = test system: cells with low CD20 density; settings: compared to rituximab; especially in cells with low CD20 density, as in CLL; cited from earlier work
[2] = molecular target: T1, CD20 on JVM-3 cells (Homo sapiens, UniProt P11836); assay: FACS binding of fluorescently labeled anti-CD20 antibodies to JVM-3 cells; settings: fluorescently labeled antibody, BD FACSCanto, FIG. 2
T1 construct: medium level expression profile of CD20 on JVM-3 cells; endogenous in cells; host or cells: JVM-3 cells
T1 sequence (P11836 1-297): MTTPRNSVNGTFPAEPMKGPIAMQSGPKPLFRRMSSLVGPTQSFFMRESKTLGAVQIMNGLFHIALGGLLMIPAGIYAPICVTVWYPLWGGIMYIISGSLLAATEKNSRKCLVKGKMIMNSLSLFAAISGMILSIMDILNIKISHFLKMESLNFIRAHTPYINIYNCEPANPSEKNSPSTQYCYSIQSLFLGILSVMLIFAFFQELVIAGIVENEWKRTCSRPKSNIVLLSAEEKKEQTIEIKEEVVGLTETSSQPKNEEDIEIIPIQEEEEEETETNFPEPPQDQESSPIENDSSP
Procedure: One microgram of each antibody was prepared in PBS and five microliters of the Zenon human IgG labeling reagent (Component A) was added to the antibody solution. The mixture was incubated for five minutes at room temperature and then five microliters of the Zenon blocking reagent (Component B) was added to the reaction mixture. After another five minutes at room temperature the complexes were ready to be used. 5×10^6 cells/ml of viable JVM-3 cells were resuspended in PBS. 100 ul of the cells were added to each tube. 10 ul of human IgG was added to block non-specific binding. The cells and human IgG were incubated for 10 minutes. […] The mixture was incubated for an additional 30 minutes on ice in the dark. Then 500 ul of PBS was added to the cells and they were centrifuged for 5 minutes at 1000 rpm. The supernatant was removed and 500 ul of PBS was added and the cells were centrifuged again. Again the supernatant was removed and the cells resuspended in 300 ul of PBS. The cells were analyzed on a BD FACSCanto.

For “ofatumumab: new generation, human monoclonal antibody that targets a membrane proximal, small loop epitope of the CD20 molecule; 2F2 antibody in WO2004/035607”, the “induction of tumor cell lysis by CDC activity” value [1] is given as “superior induction of tumor cell lysis by CDC” and the “receptor bound on the cell surface” value [2] is given as “bound more receptors on the cell surface than rituxan antibody did”.
